Literature values in patent publication US12440499B2, “Topical composition” (MC2 Therapeutics Limited, priority 2018, dated 2025).

Settings: in presence of water

pH value for maximum stability: above 8
SMILES: C=C1/C(=C\C=C2/CCC[C@]3(C)[C@@H]([C@H](C)/C=C/[C@@H](O)C4CC4)CC[C@@H]23)C[C@@H](O)C[C@@H]1O [calcipotriol]
